According to patent publication EP1891948A1, “Treatment of neurological and neuropsychological disorders” (Probiodrug AG, priority 2000, dated 2002):

Assays:
[1] = cited from earlier work; for anxiety in the elevated plus-maze and social interaction tests: blockade of amygdala NPY Y1R, low stress conditions, Kask et al., 1998b, Sajdyk, 1999
[2] = tested on: rats; settings: administered into the dorsal periaqueductal gray matter; Kask et al., 1998d; cited from earlier work
[3] = tested on: WistarF/Han (WF) rats; assay: 1h food intake with Y1R antagonist pre-treatment (Example 4); type: in vivo; settings: i.c.v., BIBP3226 100nmol pre-treatment; isoleucyl thiazolidine 50nmol; NPY 0.8nmol; Fig. 11
Protocol: (§1) Animals. Male WistarF/Han (WF) rats (Central Animal Laboratory, Hannover Medical School, Hannover, Germany, see http://www.mh-hannover.de/institut/tierlabor/wf.htm for details), weighing 330±31 g±SD, were housed in a sound-proof, temperature controlled (24.0±0.5°C) room under specific pathogen free conditions with a 12/12h dark/light cycle (lights on at 07.00 with illumination level of 80 Lux). Food (Altromin lab chow pellets) and tap water were available ad libitum. Under ketamine/xylasine (100/5 mg/kg, i.p.) anesthesia, the rats were fixed in a Kopf stereotaxic frame and implanted with cannulae (Plastic One, Inc., Roanoke, VA, USA) above the lateral ventricle. All research and animal care procedures were approved by the Lower Saxony district government (Hannover, Germany) and followed principles described in the European Community's Council Directive of 24 November 1986 (86/609/EEC).
(§2) Surgery and i.c.v. application. For surgery, rats were anesthetized and prepared with i.c.v. cannulae (coordinates: A:-0.7mm caudal, L:1.4mm lateral to bregma; and V3.2mm ventral to the skull surface; tooth bar +3.0 above ear bars) using standard stereotaxic procedures as described in detail elsewhere (von Hörsten et al., 1998a,b,c). After a 7-day recovery period, successful ventricle cannulation was confirmed by an angiotensin drinking response (von Hörsten et al., 1998a). Rats showing a positive drinking response (n=56) were then habituated to experimental handling by daily sham injections for seven days.
Animals were randomly divided into eight experimental groups (n=6-8/group), which completed one SI test of anxiety: (1) aCSF+aCSF+aCSF; (2) BIBP+aCSF+aCSF; (3) aCSF+isoleucyl thiazolidine+aCSF; (4) BIBP+isoleucyl thiazolidine+aCSF; (5) aCSF+aCSF+NPY; (6) BIBP+aCSF+NPY; (7) aCSF+P32/89+NPY; (8) BIBP+isoleucyl thiazolidine+NPY. Animals in each group were treated in an identical way in each phase, receiving i.c.v. injections -60mins and -55min before behavioral testing. Experiments spanned two nights with groups counterbalances on both dark cycles. The injection cannula was attached to a Hamilton microsyringe with approximately 30cm of polyethylene tubing and all compounds were infused in a total volume of 5.0µl at a rate of 5.0 µl/min using a TSE multichannel infusion pump (Bad Homburg, Germany). The time spent in active social interaction (SI-time), 1h, and 12h food-intake were measured.
Peptides and Antagonist. Rat neuropeptide Y1-36 was obtained from Polypeptide Laboratories (Wolfenbüttel, Germany). The NPY Y1 receptor antagonist BIBP3226 was purchased from American Peptide Company, Sunnyvale, CA, USA (Cat#:60-1-22B). […]
(§3) Statistical analysis. Data obtained from the measures SI time and 1h food intake were analyzed by one-way (factor: "treatment") ANOVA. […]

[4] = tested on: WistarF/Han (WF) rats; assay: Social interaction (SI) test with Y1R antagonist pre-treatment (Example 4); type: in vivo; settings: Fig. 10
Protocol: as §1
Surgery and i.c.v. application. […]
Animals were randomly divided into eight experimental groups (n=6-8/group), which completed one SI test of anxiety: (1) aCSF+aCSF+aCSF; (2) BIBP+aCSF+aCSF; (3) aCSF+isoleucyl thiazolidine+aCSF; (4) BIBP+isoleucyl thiazolidine+aCSF; (5) aCSF+aCSF+NPY; (6) BIBP+aCSF+NPY; (7) aCSF+P32/89+NPY; (8) BIBP+isoleucyl thiazolidine+NPY. […] The time spent in active social interaction (SI-time), 1h, and 12h food-intake were measured. […]
Social interaction (SI) test. […] Behavior was monitored using a video camera placed above the field inside the testing/isolation box. The SI behavior of both rats was recorded on-line from a monitor placed outside on top of the box. The following parameters were scored by an observer (HPN) unaware of the substrain of rats: duration of time spent in sniffing, following, crawling under and over other rats, but not passive body contact (resting, sleeping). […]
as §3

[5] = tested on: olfactory bulbectomized rats; settings: 7-day i.c.v. administration; Song et al., 1996; cited from earlier work
[6] = tested on: WistarF/Han (WF) rats; assay: 1h and 12h food intake after combined i.c.v. treatment (Example 3); type: in vivo; settings: single agents or combination, isoleucyl thiazolidine 5pmol-500nmol, NPY 50pmol-1.6nmol, Fig. 8
Protocol: as §1, with “330-370g,” for “330±31 g±SD,”
as §2, with “(n=59)” for “(n=56)”
Animals were randomly divided into two sets of four experimental groups (n=5-6/group), which completed different consecutive SI test of anxiety. […] The time spent in active social interaction (SI-time), 1h and 12h food-intake were measured. […]
Statistical analysis. Data from repeated observations (food intake) were analyzed by two-way analyses of variance for repeated measures (ANOVA) (factors: "substrain" and "food intake" as repeated measure). Data obtained from simple measures such as DP IV activity or SI time were analyzed by one-way (factor: "substrain") ANOVA. […]

[7] = i.c.v. injection, Kask et al. (1996)

NC(=O)NCc1ccc(CNC(=O)[C@@H](CCCN=C(N)N)NC(=O)C(c2ccccc2)c2ccccc2)cc1 [BIB03304]
anxiety in the elevated plus-maze and social interaction tests [1]: did not increase anxiety

NC(N)=NCCC[C@@H](NC(=O)C(c1ccccc1)c1ccccc1)C(=O)NCc1ccc(O)cc1 [BIBP3226]
time spent in active social interaction [2]: decreased | 1h feeding under Y1R blockade [3]: only partly affected | effect on isoleucyl thiazolidine-induced potentiation of the NPY mediated anxiolytic-like effect on SI behavior ([4]; i.c.v. pre-treatment, BIBP3226 100nmol): can block | anxiety in the elevated plus-maze and social interaction tests [1]: did not increase anxiety | effect in the elevated plus-maze test [1, 7]: anxiogenic-like effects | locomotor effect [1, 7]: without any locomotor deficit

NPY: Rat neuropeptide Y1-36 obtained from Polypeptide Laboratories
behavioral and neurotransmitters deficits [5]: attenuated | amount of food eaten within 1h [6]: "u-shaped" dose-dependent feeding effect | 1h feeding under Y1R blockade [3]: only partly mediated by the Y1R | anxiolytic-like effect in the SI test under Y1 receptor blockade ([4]; i.c.v., BIBP3226 100nmol pre-treatment, isoleucyl thiazolidine 50nmol, NPY 0.8nmol): antagonized
